15 molecules from patent US20230248834A1, “DEGRADATION OF (EGFR) BY CONJUGATION OF EGFR INHIBITORS WITH E3 LIGASE LIGAND AND METHODS OF USE” (BEIGENE, LTD., priority 2020, published 2023) can be followed below.

What is called Dmax is the largest share of the target that was removed.

In the test the target is T1, EGFR L858R/T790M/C797S (Homo sapiens, UniProt P00533, C797S/L858R/T790M).
T1 construct: expressed in transfected cells; host or cells: BaF3-LTC
Put plainly: EGFR degradation HTRF assay in BaF3-LTC cells. Type of test: cell-based. The following applies: BaF3-LTC (L858R/T790M/C797S), maximum percentage of inhibition (degradation); read-out: BaF3-LTC Dmax (%). The procedure:
BaF3-LTC(L858R/T790M/C797S) cells and BaF3 LC(L858R/C797S) cells are treated with compounds diluted in 0.2% DMSO cell culture medium and incubate for 16 h, 37° C., 5% CO2. the final concentration of compounds in all assay is start with 10 uM, 5-fold dilution, total 8 doses were included.
After 16 h treatment, add HTRF lysis buffer to each well; seal the plate and incubate 1 hour at room temperature on a plate shaker; Once the cells are lysed, 16 μL of cell lysate are transferred to a PE 384-well HTRF detection plate; 4 μL of pre-mixed HTRF antibodies are added to each well; Cover the plate with a plate sealer, spin 1000 rpm for 1 min, Incubate overnight at room temperature; Read on BMG PheraStar with HTRF protocol (337 nm-665 nm-620 nm).
The inhibition (degradation) percentage of the compound was calculated by the following equation: Inhibition percentage of Compound=100−100×(Signal−low control)/(High control−low control), wherein signal=each test compound group
High control=Cell group with added DMSO and without compound, indicating microplate readings without EGFR degradation;
Dmax is the maximum percentage of inhibition (degradation).
The IC50 (DC50) value of a compound can be obtained by fitting the following equation
Y=Bottom+(TOP−Bottom)/(1+((IC50/X)^hillslope))
Wherein, X and Y are known values, and IC50, Hillslope, Top and Bottom are the parameters obtained by fitting with software. Y is the inhibition percentage (calculated from the equation), X is the concentration of the compound; IC50 is the concentration of the compound when the 50% inhibition is reached. The smaller the IC50 value is, the stronger the inhibitory ability of the compound is. Vice versa, the higher the IC50 value is, the weaker the inhibitory ability of the compound is; Hillslope represents the slope of the fitted curve, generally around 1*; Bottom represents the minimum value of the curve obtained by data fitting, which is generally 0%±20%; Top represents the maximum value of the curve obtained by data fitting, which is generally 100%±20%. The experimental data were fitted by calculating and analyzing with Dotmatics data analysis software.
For orientation: In TR-FRET formats the signal depends on donor and acceptor labels being close together.

T1 sequence (P00533 25-1210 T790M/C797S/L858R): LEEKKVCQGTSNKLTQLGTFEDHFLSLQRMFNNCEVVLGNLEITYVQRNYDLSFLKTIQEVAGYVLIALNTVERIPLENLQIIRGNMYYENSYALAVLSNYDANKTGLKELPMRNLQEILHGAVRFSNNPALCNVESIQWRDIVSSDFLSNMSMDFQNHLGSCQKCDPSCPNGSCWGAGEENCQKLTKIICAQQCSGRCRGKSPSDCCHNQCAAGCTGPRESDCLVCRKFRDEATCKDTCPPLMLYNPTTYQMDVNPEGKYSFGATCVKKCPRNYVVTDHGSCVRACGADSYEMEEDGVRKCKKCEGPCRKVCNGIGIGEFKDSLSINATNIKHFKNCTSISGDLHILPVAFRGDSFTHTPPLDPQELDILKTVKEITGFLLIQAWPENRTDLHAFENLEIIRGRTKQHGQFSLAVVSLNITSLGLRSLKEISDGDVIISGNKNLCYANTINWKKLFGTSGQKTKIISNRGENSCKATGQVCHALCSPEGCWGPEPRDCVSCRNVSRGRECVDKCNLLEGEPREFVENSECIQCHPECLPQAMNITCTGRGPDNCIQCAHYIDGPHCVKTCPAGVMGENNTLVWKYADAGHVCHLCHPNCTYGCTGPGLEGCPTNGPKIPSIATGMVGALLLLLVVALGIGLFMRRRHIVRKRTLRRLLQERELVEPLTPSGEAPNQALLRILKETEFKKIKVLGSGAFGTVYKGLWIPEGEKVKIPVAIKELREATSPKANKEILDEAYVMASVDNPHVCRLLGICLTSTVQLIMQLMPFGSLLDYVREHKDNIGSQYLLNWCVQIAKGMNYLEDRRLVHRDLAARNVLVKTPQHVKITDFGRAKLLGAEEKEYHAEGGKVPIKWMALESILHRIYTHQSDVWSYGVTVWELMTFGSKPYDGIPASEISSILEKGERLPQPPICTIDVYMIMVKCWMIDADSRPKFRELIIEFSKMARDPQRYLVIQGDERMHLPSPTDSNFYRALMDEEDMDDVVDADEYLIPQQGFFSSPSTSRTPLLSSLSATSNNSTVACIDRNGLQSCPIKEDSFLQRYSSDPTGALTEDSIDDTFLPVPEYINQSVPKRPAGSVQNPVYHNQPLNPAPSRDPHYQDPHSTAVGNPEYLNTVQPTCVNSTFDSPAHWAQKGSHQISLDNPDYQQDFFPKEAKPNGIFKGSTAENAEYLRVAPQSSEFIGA

Regarding `CCc1cc(Nc2ncc(Br)c(Nc3ccc4nc(C)ncc4c3P(C)(C)=O)n2)c(OC)cc1N1CCC(N2CCN(CCc3cc(F)c([C@H]4CCC(=O)NC4=O)c(F)c3)CC2)CC1` [Example 739, (R)-3-(4-(2-(4-(1-(4-((5-bromo-4-((5-(dimethylphosphoryl)-2-methylquinazolin-6-yl)amino)pyrimidin-2-yl)amino)-2-ethyl-5-methoxyphenyl)piperidin-4-yl)piperazin-1-yl)ethyl)-2,6-difluorophenyl)piperidine-2,6-dione], the Dmax was 95.7%. For `CCc1ccc2c(P(C)(C)=O)c(Nc3nc(Nc4cc(CC)c(N5CCC(N6CCN(CCc7cc(F)c([C@H]8CCC(=O)NC8=O)c(F)c7)CC6)CC5)cc4OC)ncc3Cl)ccc2n1` [Example 744, (R)-3-(4-(2-(4-(1-(4-((5-chloro-4-((5-(dimethylphosphoryl)-2-ethylquinolin-6-yl)amino)pyrimidin-2-yl)amino)-2-ethyl-5-methoxyphenyl)piperidin-4-yl)piperazin-1-yl)ethyl)-2,6-difluorophenyl)piperidine-2,6-dione] the value was 92.3%. With `CCOc1cc(N2CCC(N3CCN(CCc4cc(F)c([C@H]5CCC(=O)NC5=O)c(F)c4)CC3)CC2)c(CC)cc1Nc1ncc(Br)c(Nc2ccc3nc(C)ncc3c2P(C)(C)=O)n1` [Example 738, (R)-3-(4-(2-(4-(1-(4-((5-bromo-4-((5-(dimethylphosphoryl)-2-methylquinazolin-6-yl)amino)pyrimidin-2-yl)amino)-5-ethoxy-2-ethylphenyl)piperidin-4-yl)piperazin-1-yl)ethyl)-2,6-difluorophenyl)piperidine-2,6-dione], the maximal degradation (Dmax) is 95.7%.

Turning to `[2H]C1([2H])CC([2H])(c2c(F)cc(CCN3CCN(C4CCN(c5cc(OCC)c(Nc6ncc(Br)c(Nc7ccc8nc(C)ccc8c7P(C)(C)=O)n6)cc5CC)CC4)CC3)cc2F)C(=O)NC1=O` (stereo not drawn) [Example 570, 3-(4-(2-(4-(1-(4-((5-bromo-4-((5-(dimethylphosphoryl)-2-methylquinolin-6-yl)amino)pyrimidin-2-yl)amino)-5-ethoxy-2-ethylphenyl)piperidin-4-yl)piperazin-1-yl)ethyl)-2,6-difluorophenyl)piperidine-2,6-dione-3,5,5-d3], the Dmax came out at 91.7%. For `CCOc1cc(N2CCC(N3CCN(CCc4c(F)ccc5c4n(C)c(=O)n5C4CCC(=O)NC4=O)CC3)CC2)c(CC)cc1Nc1ncc(Br)c(Nc2ccc3nc(CC)ncc3c2P(C)(C)=O)n1` (stereo not drawn) [Example 736, 3-(4-(2-(4-(1-(4-((5-bromo-4-((5-(dimethylphosphoryl)-2-ethylquinazolin-6-yl)amino)pyrimidin-2-yl)amino)-5-ethoxy-2-ethylphenyl)piperidin-4-yl)piperazin-1-yl)ethyl)-5-fluoro-3-methyl-2-oxo-2,3-dihydro-1H-benzo[d]imidazol-1-yl)piperidine-2,6-dione] the value was 97%; for `CCOc1cc(N2CCC(N3CCN(C(=O)[C@H]4CN(c5cc(F)c([C@H]6CCC(=O)NC6=O)c(F)c5)CC4(C)C)CC3)CC2)c(CC)cc1Nc1ncc(Br)c(Nc2ccc3nc(C)ccc3c2P(C)(C)=O)n1` [Example 747, (R)-3-(4-((R)-4-(4-(1-(4-((5-bromo-4-((5-(dimethylphosphoryl)-2-methylquinolin-6-yl)amino)pyrimidin-2-yl)amino)-5-ethoxy-2-ethylphenyl)piperidin-4-yl)piperazine-1-carbonyl)-3,3-dimethylpyrrolidin-1-yl)-2,6-difluorophenyl)piperidine-2,6-dione], 96.2%. For `CCOc1cc(N2CCC(N3CCN(CCc4cc(F)c([C@H]5CCC(=O)NC5=O)c(F)c4)CC3)CC2)c(CC)cc1Nc1nccc(Nc2ccc3nc(CC)ncc3c2P(C)(C)=O)n1` [Example 749, (R)-3-(4-(2-(4-(1-(4-((4-((5-(dimethylphosphoryl)-2-ethylquinazolin-6-yl)amino)pyrimidin-2-yl)amino)-5-ethoxy-2-ethylphenyl)piperidin-4-yl)piperazin-1-yl)ethyl)-2,6-difluorophenyl)piperidine-2,6-dione] the value was 35.9%; for `CCc1cc(Nc2ncc(Br)c(Nc3ccc4nc(C5CC5)ccc4c3P(C)(C)=O)n2)c(OC)cc1N1CCC(N2CCN(CCc3cc(F)c([C@H]4CCC(=O)NC4=O)c(F)c3)CC2)CC1` [Example 741, (R)-3-(4-(2-(4-(1-(4-((5-bromo-4-((2-cyclopropyl-5-(dimethylphosphoryl)quinolin-6-yl)amino)pyrimidin-2-yl)amino)-2-ethyl-5-methoxyphenyl)piperidin-4-yl)piperazin-1-yl)ethyl)-2,6-difluorophenyl)piperidine-2,6-dione], 96.6%; for `CCOc1cc(N2CCC(N3CCN(CCc4cc(F)c([C@H]5CCC(=O)NC5=O)c(F)c4)CC3)CC2)c(CC)cc1Nc1ncc(Cl)c(Nc2cc(F)c3nc(CC)ccc3c2P(C)(C)=O)n1` [Example 730, (R)-3-(4-(2-(4-(1-(4-((5-chloro-4-((5-(dimethylphosphoryl)-2-ethyl-8-fluoroquinolin-6-yl)amino)pyrimidin-2-yl)amino)-5-ethoxy-2-ethylphenyl)piperidin-4-yl)piperazin-1-yl)ethyl)-2,6-difluorophenyl)piperidine-2,6-dione], 83.7%.

Turning to `CCOc1cc(N2CCC(N3CCN(CCc4cc(F)c([C@H]5CCC(=O)NC5=O)c(F)c4)CC3)CC2)c(CC)cc1Nc1ncc(C)c(Nc2cc(F)c3nc(CC)ccc3c2P(C)(C)=O)n1` [Example 733, (R)-3-(4-(2-(4-(1-(4-((4-((5-(dimethylphosphoryl)-2-ethyl-8-fluoroquinolin-6-yl)amino)-5-methylpyrimidin-2-yl)amino)-5-ethoxy-2-ethylphenyl)piperidin-4-yl)piperazin-1-yl)ethyl)-2,6-difluorophenyl)piperidine-2,6-dione], the Dmax stood at 89.5%.

Turning to `CCOc1cc(N2CCC(N3CCN(CCc4c(F)cc(F)c5c4oc(=O)n5C4CCC(=O)NC4=O)CC3)CC2)c(CC)cc1Nc1ncc(Br)c(Nc2ccc3nc(CC)ccc3c2P(C)(C)=O)n1` (stereo not drawn) [Example 731, 3-(7-(2-(4-(1-(4-((5-bromo-4-((5-(dimethylphosphoryl)-2-ethylquinolin-6-yl)amino)pyrimidin-2-yl)amino)-5-ethoxy-2-ethylphenyl)piperidin-4-yl)piperazin-1-yl)ethyl)-4,6-difluoro-2-oxobenzo[d]oxazol-3(2H)-yl)piperidine-2,6-dione], the Dmax is 80.3%.

Consider `COc1cc(N2CCC(N3CCN(C(=O)[C@@H]4CCN(c5cc(F)c([C@H]6CCC(=O)NC6=O)c(F)c5)C4)CC3)CC2)c(C)cc1Nc1ncc(Br)c(Nc2ccc3nc(C)c(F)cc3c2P(C)(C)=O)n1` [Example 732, (R)-3-(4-((R)-3-(4-(1-(4-((5-bromo-4-((5-(dimethylphosphoryl)-3-fluoro-2-methylquinolin-6-yl)amino)pyrimidin-2-yl)amino)-5-methoxy-2-methylphenyl)piperidin-4-yl)piperazine-1-carbonyl)pyrrolidin-1-yl)-2,6-difluorophenyl)piperidine-2,6-dione], for which the Dmax amounted to 95.5%.

`CCOc1cc(N2CCC(N3CCN(CCc4c(F)ccc5c4n(CC)c(=O)n5C4CCC(=O)NC4=O)CC3)CC2)c(CC)cc1Nc1ncc(Br)c(Nc2ccc3nc(CC)ccc3c2P(C)(C)=O)n1` (stereo not drawn) [Example 558, 3-(4-(2-(4-(1-(4-((5-bromo-4-((5-(dimethylphosphoryl)-2-ethylquinolin-6-yl)amino)pyrimidin-2-yl)amino)-5-ethoxy-2-ethylphenyl)piperidin-4-yl)piperazin-1-yl)ethyl)-3-ethyl-5-fluoro-2-oxo-2,3-dihydro-1H-benzo[d]imidazol-1-yl)piperidine-2,6-dione]: the Dmax came to 95.9%. Next, `CCc1ncc2c(P(C)(C)=O)c(Nc3nc(Nc4cc(C)c(N5CCC(N6CCN(CCc7cc(F)c([C@H]8CCC(=O)NC8=O)c(F)c7)CC6)CC5)cc4OC)ncc3Br)ccc2n1` [Example 748, (R)-3-(4-(2-(4-(1-(4-((5-bromo-4-((5-(dimethylphosphoryl)-2-ethylquinazolin-6-yl)amino)pyrimidin-2-yl)amino)-5-methoxy-2-methylphenyl)piperidin-4-yl)piperazin-1-yl)ethyl)-2,6-difluorophenyl)piperidine-2,6-dione]: 93.6%; `CCOc1cc(N2CCC(N3CCN(C(=O)[C@H]4CN(c5cc(F)c([C@H]6CCC(=O)NC6=O)c(F)c5)CC4(C)C)CC3)CC2)c(C)cc1Nc1ncc(Br)c(Nc2ccc3nc(C)ccc3c2P(C)(C)=O)n1` [Example 727, (R)-3-(4-((R)-4-(4-(1-(4-((5-bromo-4-((5-(dimethylphosphoryl)-2-methylquinolin-6-yl)amino)pyrimidin-2-yl)amino)-5-ethoxy-2-methylphenyl)piperidin-4-yl)piperazine-1-carbonyl)-3,3-dimethylpyrrolidin-1-yl)-2,6-difluorophenyl)piperidine-2,6-dione]: 97.5%.
